Data reported in ChEMBL document CHEMBL3044961, “Rapid synthesis, characterization, anticancer and antimicrobial activity studies of substituted thiadiazoles and their dinucleating ligand metal complexes” (Med Chem Res, 2012).
The source made the active and inactive calls. No cut-off for these calls is given here.

What was measured:
[1] = tested on: Enterococcus faecalis; assay: Antibacterial activity against Enterococcus faecalis at 1 ug/ml after 24 hr by well diffusion method; assay type: functional; settings: for zone of inhibition at 1 µg/mL: read-out: IZ
[2] = tested on: Proteus vulgaris; assay: Antibacterial activity against Proteus vulgaris at 1 ug/ml after 24 hr by well diffusion method; assay type: functional; settings: for zone of inhibition at 1 µg/mL: read-out: IZ
[3] = tested on: Bacillus subtilis; assay: Antibacterial activity against Bacillus subtilis at 1 ug/ml after 24 hr by well diffusion method; assay type: functional; settings: read-out: IZ
[4] = tested on: Micrococcus luteus; assay: Antibacterial activity against Micrococcus luteus at 1 ug/ml after 24 hr by well diffusion method; assay type: functional; settings: for zone of inhibition at 1 µg/mL: read-out: IZ
[5] = tested on: Klebsiella pneumoniae; assay: Antibacterial activity against Klebsiella pneumoniae at 1 ug/ml after 24 hr by well diffusion method; assay type: functional; settings: read-out: IZ
[6] = tested on: Rhizoctonia solani; assay: Antifungal activity against Rhizoctonia solani at 1 ug/ml after 48 hr by well diffusion method; assay type: functional; settings: for zone of inhibition at 1 µg/mL: read-out: IZ
[7] = tested on: Streptococcus faecalis; assay: Antibacterial activity against Streptococcus faecalis at 1 ug/ml after 24 hr by well diffusion method; settings: read-out: IZ
[8] = tested on: Penicillium expansum; assay: Antifungal activity against Penicillium expansum at 1 ug/ml after 48 hr by well diffusion method; assay type: functional; settings: read-out: IZ
[9] = tested on: Escherichia coli; assay: Antibacterial activity against Escherichia coli at 1 ug/ml after 24 hr by well diffusion method; assay type: functional; settings: read-out: IZ
[10] = tested on: Aspergillus flavus; assay: Antifungal activity against Aspergillus flavus at 1 ug/ml after 48 hr by well diffusion method; assay type: functional; settings: read-out: IZ
[11] = tested on: Pectobacterium carotovorum; assay: Antibacterial activity against Pectobacterium carotovorum at 1 ug/ml after 24 hr by well diffusion method; assay type: functional; settings: for zone of inhibition at 1 µg/mL: read-out: IZ
[12] = tested on: Lasiodiplodia theobromae; assay: Antifungal activity against Lasiodiplodia theobromae at 1 ug/ml after 48 hr by well diffusion method; assay type: functional; settings: for zone of inhibition at 1 µg/mL: read-out: IZ
[13] = tested on: HL-60; assay: Cytotoxicity against Homo sapiens (human) HL60 cells after 96 hr by MTT assay; assay type: functional, cell-based
[14] = tested on: U-937; assay: Cytotoxicity against Homo sapiens (human) U937 cells after 96 hr by MTT assay; assay type: functional, cell-based
[15] = Homo sapiens, HL-60, 96 h, read-out: IC50
[16] = Homo sapiens, U-937, 96 h, read-out: IC50

In the case of `CC1(C)S[C@@H]2[C@H](NC(=O)[C@H](N)c3ccccc3)C(=O)N2[C@H]1C(=O)O` [AMPICILLIN], the “inhibition zone (IZ)” value [1] is reported as “inactive”, the zone of inhibition at 1 µg/mL [2] is reported as 33 mm and the zone of inhibition at 1 µg/mL [3] is reported as 30 mm. It also gave a zone of inhibition at 1 µg/mL [4] of 32 mm, a zone of inhibition at 1 µg/mL [5] of 29 mm and a zone of inhibition at 1 µg/mL [6] of 29 mm. For the same compound, the zone of inhibition at 1 µg/mL [7] was 30 mm, the zone of inhibition at 1 µg/mL [8] was 35 mm and the zone of inhibition at 1 µg/mL [9] was 28 mm. For the same compound, the zone of inhibition at 1 µg/mL [10] was 31 mm, the zone of inhibition at 1 µg/mL [11] was 31 mm and the “inhibition zone (IZ)” value [12] was “inactive”.
In the case of `O=c1[nH]cc(F)c(=O)[nH]1` [FLUOROURACIL], the IC50 [13, 15] is reported as 266 µM and the IC50 [14, 16] is reported as 4.7 µM.
`CCOC(=O)/C(C#N)=N/Nc1nnc(C)s1` showed a zone of inhibition at 1 µg/mL [1] of 7 mm, an IC50 [13, 15] of 22.1 µM and a zone of inhibition at 1 µg/mL [2] of 8 mm. The zone of inhibition at 1 µg/mL [3] was 8 mm, the “inhibition zone (IZ)” value [4] was “inactive” and the zone of inhibition at 1 µg/mL [5] was 7 mm. For the same compound, the “inhibition zone (IZ)” value [6] was “inactive”, the zone of inhibition at 1 µg/mL [7] was 6 mm and the zone of inhibition at 1 µg/mL [8] was 17 mm. The IC50 [14, 16] was 19.3 µM, the zone of inhibition at 1 µg/mL [9] was 7 mm and the zone of inhibition at 1 µg/mL [10] was 11 mm. The “inhibition zone (IZ)” value [11] was “inactive” and the zone of inhibition at 1 µg/mL [12] was 7 mm.
For `O=NN(CCCl)C(=O)NCCCl` [CARMUSTINE], the IC50 [13, 15] was 30.5 µM and the IC50 [14, 16] was 12.3 µM.
With `Cc1nnc(NN=C(C#N)C#N)s1` the zone of inhibition at 1 µg/mL [1] was 9 mm, the IC50 [13, 15] was 28.1 µM and the zone of inhibition at 1 µg/mL [2] was 10 mm. It also gave a zone of inhibition at 1 µg/mL [3] of 10 mm, a zone of inhibition at 1 µg/mL [4] of 7 mm and a zone of inhibition at 1 µg/mL [5] of 8 mm. The “inhibition zone (IZ)” value [6] was “inactive”, the zone of inhibition at 1 µg/mL [7] was 6 mm and the zone of inhibition at 1 µg/mL [8] was 15 mm. The IC50 ([14]; u-937) was “Not Active”, the zone of inhibition at 1 µg/mL [9] was 6 mm and the zone of inhibition at 1 µg/mL [10] was 12 mm. The “inhibition zone (IZ)” value [11] was “inactive” and the zone of inhibition at 1 µg/mL [12] was 8 mm.
In the case of `CCc1nnc(NN=C(C(C)=O)C(C)=O)s1`, the zone of inhibition at 1 µg/mL [1] is reported as 8 mm, the zone of inhibition at 1 µg/mL [2] is reported as 6 mm and the zone of inhibition at 1 µg/mL [3] is reported as 8 mm. It also gave a zone of inhibition at 1 µg/mL [4] of 8 mm, a zone of inhibition at 1 µg/mL [5] of 5 mm and a zone of inhibition at 1 µg/mL [6] of 6 mm. The zone of inhibition at 1 µg/mL [7] was 8 mm, the zone of inhibition at 1 µg/mL [8] was 14 mm and the zone of inhibition at 1 µg/mL [9] was 8 mm. The zone of inhibition at 1 µg/mL [10] was 10 mm, the zone of inhibition at 1 µg/mL [11] was 7 mm and the zone of inhibition at 1 µg/mL [12] was 7 mm.
In the case of `CCc1nnc(NN=C(C#N)C#N)s1`, the zone of inhibition at 1 µg/mL [1] is reported as 7 mm, the “inhibition zone (IZ)” value [2] is reported as “inactive” and the zone of inhibition at 1 µg/mL [3] is reported as 11 mm. For the same compound, the zone of inhibition at 1 µg/mL [4] was 6 mm, the zone of inhibition at 1 µg/mL [5] was 7 mm and the “inhibition zone (IZ)” value [6] was “inactive”. For the same compound, the zone of inhibition at 1 µg/mL [7] was 8 mm, the zone of inhibition at 1 µg/mL [8] was 16 mm and the zone of inhibition at 1 µg/mL [9] was 9 mm. For the same compound, the zone of inhibition at 1 µg/mL [10] was 12 mm, the zone of inhibition at 1 µg/mL [11] was 7 mm and the zone of inhibition at 1 µg/mL [12] was 15 mm.
With `CC(=O)C(=NNc1nnc(C)s1)C(C)=O` the zone of inhibition at 1 µg/mL [1] was 8 mm, the IC50 [13, 15] was 23 µM and the zone of inhibition at 1 µg/mL [2] was 7 mm. The zone of inhibition at 1 µg/mL [3] was 7 mm, the “inhibition zone (IZ)” value [4] was “inactive” and the zone of inhibition at 1 µg/mL [5] was 8 mm. It also gave a zone of inhibition at 1 µg/mL [6] of 4 mm, a zone of inhibition at 1 µg/mL [7] of 7 mm and a zone of inhibition at 1 µg/mL [8] of 18 mm. For the same compound, the IC50 [14, 16] was 24.7 µM, the zone of inhibition at 1 µg/mL [9] was 8 mm and the zone of inhibition at 1 µg/mL [10] was 12 mm. It also gave a zone of inhibition at 1 µg/mL [11] of 6 mm and a zone of inhibition at 1 µg/mL [12] of 6 mm.
In the case of `NC(=O)NO` [HYDROXYUREA], the IC50 ([13]; hl-60) is reported as “Not Active”.
With `CCOC(=O)/C(C#N)=N/Nc1nnc(CC)s1` the zone of inhibition at 1 µg/mL [1] was 6 mm, the “inhibition zone (IZ)” value [2] was “inactive” and the zone of inhibition at 1 µg/mL [3] was 9 mm. For the same compound, the zone of inhibition at 1 µg/mL [4] was 6 mm, the zone of inhibition at 1 µg/mL [5] was 7 mm and the “inhibition zone (IZ)” value [6] was “inactive”. The zone of inhibition at 1 µg/mL [7] was 5 mm, the zone of inhibition at 1 µg/mL [8] was 16 mm and the zone of inhibition at 1 µg/mL [9] was 9 mm. For the same compound, the zone of inhibition at 1 µg/mL [10] was 12 mm, the “inhibition zone (IZ)” value [11] was “inactive” and the zone of inhibition at 1 µg/mL [12] was 10 mm.
